These results are taken from US20140296153A1, “Oligodendrocyte Differentiation” (priority 2011, published 2014).

Test [1] concerns SVZ cells. Briefly: SVZ neurosphere forming assay (primary neurospheres). The format is cell-based, mouse. Conditions: HGF 50 ng.ml^−1, 6 days, SFM with 5 ng/ml EGF and 2.5 ng/ml FGF-2. The protocol: Neurosphere forming and self-renewal assays were performed on SVZ cells seeded at clonal density, 2500 cells per well in 24-well cell culture plates in SFM containing 5 ng/ml EGF and 2.5 ng/ml FGF-2 and supplemented or not (control) with 1 μM Hp or 50 ng.ml^−1 hepatocyte growth factor (carrier free recombinant human HGF, R&D Systems, Lille, France). After 6 days, the numbers of primary neurospheres were determined. For self-renewal assay, neurospheres were collected, dissociated as single cells and seeded in SFM containing 5 ng/ml EGF and 2.5 ng/ml FGF-2 in 24 well plates. After 6 days, the number of secondary neurospheres was counted.
Fluorescence images were recorded using an LSM 510 Meta confocal microscope or an Axioskop 2 Plus fluorescence microscope (both from Carl Zeiss). In all experiments, measurements were performed in the border of SVZ neurospheres where migrating cells form a cell monolayer. For the SVZ neurosphere forming and self-renewal assays the experiments were replicated in five independent culture preparations and each experimental condition was assayed in four different coverslips. For the remaining experiments, each condition was assayed in three different coverslips, and except where otherwise specified, the experiments were replicated in three independent culture preparations. Percentages of TUNEL or BrdU immunoreactive cells in SVZ cell cultures were calculated from cell counts in five independent microscopic fields in each coverslip with a x40 objective (approximately 200 cells per field). Software used was Axiovision, release 4.6 (Carl Zeiss). For SCCl experiments, the percentage of oligodendrocytic-like responding cells (with a Thromb/Hist ratio above 1.3) was calculated on the basis of one microscopic field per coverslip, containing approximately 100 cells (magnification, ×40).
Neural stem-like cells are characterized in vitro by both their capacity to give rise to neurospheres and to self-renew when cultured in the presence of mitogens.

Test [2] relates to SVZ cells. The test can be described thus: SVZ self-renewal assay (secondary neurospheres). The format is cell-based, mouse. Conditions: primary neurospheres exposed to HGF 50 ng.ml^−1 for 6 days, replated without HGF.
The conditions of test [3]: administered to rats; cited from earlier work.
The target of test [4] is CB1R (Homo sapiens, UniProt P21554). As to conditions: cited from earlier work.
Test [5] deals with OPC. As to conditions: cited from earlier work.
Test [6] relates to SVZ cells. The test can be described thus: Single cell calcium imaging (SCCI) of oligodendrocytic differentiation. The format is cell-based, mouse. Conditions: AM251 1 μM co-treated with Hp 1 μM, 7 days, 8 coverslips. The protocol: To investigate the influence of Hp on oligodendrocytic differentiation, SVZ neurospheres were allowed to develop for 7 days Hp (100 nm, 1 μM), in serum free medium devoid of growth factor at 37° C.
To determine the functional differentiation pattern of SVZ cells, we analyzed the variations of intracellular calcium-free levels ([Ca^2+]i) in single cells following stimulation with 50 mM KCl, 100 μM histamine (Sigma-Aldrich, St. Louis, Mo. USA) and 0.1 U/ml thrombin (Sigma-Aldrich) stimulation. KCl depolarization causes an increase in [Ca^2+]i in neurons, whereas stimulation with histamine leads to an increase in [Ca^2+]i in stem/progenitor cells, while thrombin leads to an increase in [Ca^2+]i in oligodendrocytes. SVZ cultures were loaded for 40 minutes with 5 μM Fura—2/AM (Molecular Probes, Carlsbad, Calif., USA), 0.1% fatty acid-free BSA, and 0.02% pluronic acid F-127 (Molecular Probes) in Krebs solution (132 mM NaCl, 4 mM KCl, 1.4 mM MgCl2, 1 mM CaCl2, 6 mM glucose, 10 mM HEPES, pH 7.4), in an incubator with 5% CO2 and 95% atmospheric air at 37° C. After a 10-minute postloading period at room temperature (RT) in the same medium without Fura-2/AM and pluronic acid, to obtain a complete hydrolysis of the probe, the glass coverslip was mounted on an RC-20 chamber in a PH3 platform (Warner Instruments, Hamden, Conn., USA) on the stage of an inverted fluorescence microscope (Axiovert 200, Carl Zeiss). […] The variations of [Ca^2+]i were evaluated by quantifying the ratio of the fluorescence emitted at 510 nm following alternate excitation (750 msec) at 340 and 380 nm, using a Lambda DG4 apparatus (Sutter Instrument, Novato, Calif., USA) and a 510 nm band-pass filter (Carl Zeiss) before fluorescence acquisition with a x40 objective and a CoolSNAP digital camera (Roper Scientific, Trenton, N.J., USA). […] KCl, histamine, and thrombin peaks given by the normalized ratios of fluorescence at 340/380 nm, at the proper time periods, were used to calculate the ratios of the responses to histamine/KCl (Hist/KCl-neuronal-like profile) and to thrombin/histamine (Throm/Hist-oligodendrocytic-like profile).
Fluorescence images were recorded using an LSM 510 Meta confocal microscope or an Axioskop 2 Plus fluorescence microscope (both from Carl Zeiss). […] Percentages of TUNEL or BrdU immunoreactive cells in SVZ cell cultures were calculated from cell counts in five independent microscopic fields in each coverslip with a x40 objective (approximately 200 cells per field). […] For SCCl experiments, the percentage of oligodendrocytic-like responding cells (with a Thromb/Hist ratio above 1.3) was calculated on the basis of one microscopic field per coverslip, containing approximately 100 cells (magnification, ×40). […]

CB1R, sequence (P21554 whole entry): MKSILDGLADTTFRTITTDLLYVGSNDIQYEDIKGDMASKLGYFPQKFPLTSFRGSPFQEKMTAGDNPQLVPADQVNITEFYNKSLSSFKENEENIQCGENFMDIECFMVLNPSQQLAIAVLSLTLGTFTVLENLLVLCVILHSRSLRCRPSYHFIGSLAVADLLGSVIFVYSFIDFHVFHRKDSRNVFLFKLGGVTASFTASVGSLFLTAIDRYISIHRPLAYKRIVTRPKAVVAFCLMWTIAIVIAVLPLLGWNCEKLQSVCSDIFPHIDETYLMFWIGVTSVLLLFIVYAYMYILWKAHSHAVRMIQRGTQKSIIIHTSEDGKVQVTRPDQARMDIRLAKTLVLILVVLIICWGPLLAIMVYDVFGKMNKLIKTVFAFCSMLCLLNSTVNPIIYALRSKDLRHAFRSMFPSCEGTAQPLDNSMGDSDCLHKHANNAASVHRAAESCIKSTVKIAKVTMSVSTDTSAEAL

On to “HGF: carrier free recombinant human HGF, used as a positive control”, for which the “number of primary neurospheres (control 100%)” value in test [1] was 121.0±13.14%. Moreover, in test [2], the “number of secondary neurospheres (control 100%)” value was determined as 120.0±11.54%.
Consider “PVNFKWLSH (listed as Homo sapiens) [SEQ ID 4, variant of Hp peptide]”, for which the “periepididymal and visceral fat content compared to the control group” value in test [3] is listed as “reduced”.
Turning to “RVDPVNFKFLSH (listed as Homo sapiens) [SEQ. ID. 3, N-terminally extended variant of Hp, Arg Val Asp Pro Val Asn Phe Lys Phe Leu Ser His]”, the “activity at CB1R cannabinoid receptors” value in test [4] is recorded as “function as agonists”.
Consider `COc1ccc(C(=O)c2c(C)n(CCN3CCOCC3)c3cc(I)ccc23)cc1` [AM630], for which, in test [5], the “OPC differentiation into mature oligodendrocytes” value was “do not induce but impair”.
Consider “VDPVNFKFLSH (listed as Homo sapiens) [SEQ. ID. 2, N-terminally extended variant of Hp, Val Asp Pro Val Asn Phe Lys Phe Leu Ser His]”, for which the “activity at CB1R cannabinoid receptors” value in test [4] is “function as agonists”.
As to `Cc1c(C(=O)NN2CCCCC2)nn(-c2ccc(Cl)cc2Cl)c1-c1ccc(Cl)cc1` [rimonabant], the “OPC differentiation into mature oligodendrocytes” value in test [5] was “do not induce but impair”.
For the compound `Cc1c(C(=O)NN2CCCCC2)nn(-c2ccc(Cl)cc2Cl)c1-c1ccc(I)cc1` [Am 251, reference compound], the “cells responding with a Throm/Hist ratio above 1.3 (oligodendrocyte-like responding cells)” value in test [6] is listed as 1.07±0.24%.
